This is an account of results in patent publication US11286268B1, “EIF4E-inhibiting compounds and methods” (EFFECTOR THERAPEUTICS, INC., priority 2019, dated 2022).

This experiment concerns the target recombinant eIF4E (Homo sapiens (Human), UniProt P06730). The experiment can be described thus: Fluorescence polarization competition assay for eIF4E binding potency. An outline of the steps:
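Protein and fluorescent cap-analog probe (EDA-m7GDP-ATTO-550) were mixed first for 5 min, after which serially diluted compound was added to final 75 nM eIF4E, 20 nM probe, 1% DMSO. Reactions equilibrated 30 min at room temperature before polarization was measured.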
For orientation: Fluorescence polarisation rises when a labelled molecule tumbles more slowly, as on binding a larger partner.

The mark [1] stands for this setting: fluorescence polarization competition, 75 nM recombinant eIF4E, 20 nM EDA-m7GDP-ATTO-550, IC50 class, read-out: elF4E FP.
The mark [2] stands for this setting: inhibition of eIF4E/EDA-m7GDP-ATTO-550 binding by 50%, Table 4B calculated values, read-out: IC50.
Setting [3] is: inhibition of eIF4E/EDA-m7GDP-ATTO-550 binding, calculated IC50 values, Table 4B, read-out: IC50.

Where two headings read alike, the source gives them in different places. Where only a bound is given, the exact number is not on record here.

Sequence of recombinant eIF4E (P06730 whole entry): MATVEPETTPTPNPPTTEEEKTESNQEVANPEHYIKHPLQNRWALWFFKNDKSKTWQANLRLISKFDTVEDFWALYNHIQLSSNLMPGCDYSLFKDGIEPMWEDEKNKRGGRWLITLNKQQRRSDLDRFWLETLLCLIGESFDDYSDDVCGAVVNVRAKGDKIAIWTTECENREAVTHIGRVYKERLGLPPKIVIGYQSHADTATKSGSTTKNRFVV

Take `N#Cc1cc2c(=O)n(CCOc3ccc(Cl)cc3-c3cncc(C(=O)O)n3)cnc2cn1` [compound 85]: the IC50 is over 1 µM under setting [1] and 1.85 µM under setting [2].
As to `CCN(c1ncc2nc(C)n(CC#Cc3ccc(Cl)cc3-c3ccnc4c(C(=O)NS(=O)(=O)c5ccncc5)csc34)c(=O)c2c1C#N)C1CCN(CC(F)(F)C(F)F)CC1` [compound 1708], the IC50 under setting [3] was 0.0162 µM.
In the case of `Cc1nc2cc(C(F)(F)F)cc(C#N)c2c(=O)n1CCOc1ccc(Cl)cc1-c1ccnc(C(=O)O)c1` [compound 60], the IC50 under setting [1] was under 0.05 µM.
Turning to `Cc1cc(-c2cc(Cl)ccc2OCCn2c(C)nc3cnc(-c4ccc(C(F)(F)F)cc4)c(C#N)c3c2=O)c2scc(C(=O)O)c2n1` [compound 952], the IC50 is, setting by setting: under setting [1], under 0.05 µM; under setting [2], 0.045 µM.
For `Cc1cc(-c2cc(Cl)ccc2OCCn2c(C)nc3cnc(C4(C)CC4)c(C#N)c3c2=O)c2scc(C(=O)O)c2n1` [compound 831] the same measures were under 0.05 µM and 0.0123 µM.
With `Cc1cc(-c2cc(Cl)ccc2OCCn2c(C)nc3cn(C)c(=O)c(C#N)c3c2=O)c2scc(C(=O)O)c2n1` [compound 1005], the IC50 is, setting by setting: under setting [1], under 0.05 µM; under setting [2], 0.0334 µM.
For `C#Cc1nc2c(=O)n(CCOc3ccc(Cl)cc3-c3cc(C)nc4c(C(=O)O)csc34)c(C)nc2cc1C(F)(F)F` [compound 783] the same measures were under 0.05 µM and 0.0148 µM.
Taken in the same sequence, the figures for `Cc1cc(-c2cc(Cl)ccc2OCCn2c(C)nc3cnc(N)c(C#N)c3c2=O)c2scc(C(=O)O)c2n1` [compound 1072] were under 0.05 µM and 0.0372 µM.
`Cc1nc2cnc(N(C)C3CCN(C4(C)CC4)CC3)c(C#N)c2c(=O)n1CC#Cc1ccc(Cl)cc1-c1ccnc2c(C(=O)O)csc12` [compound 1524]: the IC50 under setting [3] is 0.0125 µM.
For `Cc1ccc(-c2nc(C)c3nc(C)n(CCOc4ccc(Cl)cc4-c4cc(C)nc5c(C(=O)O)csc45)c(=O)c3c2C#N)cc1` [compound 477], the IC50 under setting [1] is under 0.05 µM.
As for `N#Cc1cc2c(=O)n(CCOc3ccc(Cl)cc3-c3cc(C(=O)O)cc(F)c3F)cnc2cn1` [compound 89], the IC50 is over 1 µM under setting [1] and over 3 µM under setting [2].
As for `Cc1nc2cc(C(F)(F)F)c(CN3CCN(C)CC3)c(C#N)c2c(=O)n1CC#Cc1ccc(Cl)cc1-c1ccnc2c(C(=O)O)csc12` [compound 615], the IC50 under setting [1] was under 0.05 µM and the IC50 under setting [2] is 0.0163 µM.
For `Cc1nc2cc(C(F)(F)F)c(N3CCNCC3)c(C#N)c2c(=O)n1CCOc1ccc(Cl)cc1-c1ccnc2ccsc12` [compound 855] the same measures were under 0.05 µM and 0.00477 µM.
In the case of `Cc1nc2cnc(N(C)C3CCN(C4CC(F)(F)C4)CC3)c(C#N)c2c(=O)n1CC#Cc1ccc(Cl)cc1-c1ccnc2c(C(=O)NS(=O)(=O)C3CC(F)(F)C3)csc12` [compound 1833], under setting [3], the IC50 is 0.0148 µM.
For the molecule `N#Cc1ccc(C#N)c2c(=O)n(CCOc3ccc(Cl)cc3-c3ccnc4c(C(=O)O)csc34)c(C(F)F)nc12` [compound 1943], the IC50 under setting [3] is 0.0424 µM.
In the case of `Cc1nc2cnc(C#CCN(C)CCF)c(C#N)c2c(=O)n1CCOc1ccc(Cl)cc1-c1ccnc2c(C(=O)O)csc12` [compound 1326], the IC50 under setting [3] was 0.0128 µM.
Same read-out and setting: the result for `Cc1nc2cnc(N(C)CCCN(C)CC(F)(F)F)c(C#N)c2c(=O)n1CC#Cc1ccc(Cl)cc1-c1ccnc2c(C(=O)O)csc12` [compound 1497] reads 0.0129 µM; that for `CCN(c1ncc2nc(C)n(CC#Cc3ccc(Cl)cc3-c3ccnc4c(C(=O)NS(=O)(=O)CC)csc34)c(=O)c2c1C#N)C1CCN(C2COC2)CC1` [compound 1733], 0.00811 µM.
`Cc1cc(-c2cc(Cl)ccc2OCCn2c(C)nc3cc(CN(C)C)c(C(F)(F)F)c(C#N)c3c2=O)c2scc(C(=O)O)c2n1` [compound 635]: the IC50 under setting [1] is under 0.05 µM and the IC50 under setting [2] is 0.0106 µM.
In the case of `Cc1ncc(F)cc1-c1c(C(F)(F)F)cc2nc(C)n(CCOc3ccc(Cl)cc3-c3ccnc4c(C(=O)O)csc34)c(=O)c2c1C#N` [compound 847], the IC50 is, setting by setting: under setting [1], under 0.05 µM; under setting [2], 0.044 µM.
Taken in the same sequence, the figures for `Cc1cc(-c2cc(Cl)ccc2OCCn2c(C)nc3cc(C(F)(F)F)c(C(=O)N(C)C)c(C#N)c3c2=O)c2scc(C(=O)O)c2n1` [compound 789] were under 0.05 µM and 0.00896 µM.
For the molecule `CSCc1cc(F)c2cc(C)n(CCOc3ccc(Cl)cc3-c3ccnc4c(C(=O)O)csc34)c(=O)c2c1C#N` [compound 534], the IC50 under setting [1] was under 0.05 µM and the IC50 under setting [2] was 0.0302 µM.
As to `Cc1nc2cc(C(F)(F)F)c(Cl)c(C#N)c2c(=O)n1CCOc1ccc(Cl)cc1-c1ccnc2c(C(=O)NS(C)(=O)=O)csc12` [compound 519], the IC50 reads like this: under setting [1], under 0.05 µM; under setting [2], 0.0378 µM.
Consider `CCOP(=O)(OCC)c1csc2c(-c3cc(Cl)ccc3OCCn3c(C)nc4cnc(N(C)C5CCN(CC(F)F)CC5)c(C#N)c4c3=O)ccnc12` [compound 1616], for which, under setting [3], the IC50 is 0.0115 µM.
As for `Cc1ccc(-c2c(C(F)(F)F)cc3nc(C)n(CCOc4ccc(Cl)cc4-c4cc(C)nc5c(C(=O)O)csc45)c(=O)c3c2C#N)c(C)n1` [compound 349], the IC50 is under 0.05 µM under setting [1] and 0.00584 µM under setting [2].
For `Cc1nc2cc(C(F)(F)F)cc(C#N)c2c(=O)n1CCOc1cc(F)c(C#N)cc1-c1ccnc2c(C(=O)O)csc12` [compound 289] the same measures were under 0.05 µM and 0.0191 µM.
Regarding `CCN(c1ncc2nc(C)n(CC#Cc3ccc(Cl)cc3-c3ccnc4c(C(=O)NS(C)(=O)=O)csc34)c(=O)c2c1C#N)C1CCN(C2CC(F)(F)C2)CC1` [compound 1601], the IC50 under setting [3] is 0.00805 µM.
For the molecule `Cc1nc(N2CC3(CN(C)C3)C2)c(C#N)c2c(=O)n(CCOc3ccc(Cl)cc3-c3ccnc4c(C(=O)O)csc34)c(C)nc12` [compound 1265], the IC50 under setting [3] was 0.0115 µM.
Same read-out and setting: then `Cc1nc2cnc(-c3ccc(CN(C)C)nc3)c(C#N)c2c(=O)n1CCOc1ccc(Cl)cc1-c1ccnc2c(C(=O)O)csc12` [compound 1325], with 0.0271 µM; and `Cc1nc2cnc(N3C[C@@H](C)N(CC(F)F)[C@@H](C)C3)c(C#N)c2c(=O)n1CCOc1ccc(Cl)cc1-c1ccnc2c(C(=O)O)csc12` [compound 1350], with 0.0351 µM.
With `Cc1cc(-c2cc(Cl)ccc2OCCn2c(C)nc3cc(C(F)(F)F)c(N4CCN(C)CC4)c(C#N)c3c2=O)c2scc(C(=O)OC(C)OC(=O)OC3CCCCC3)c2n1` (centres unmarked) [compound 1082], the IC50 reads like this: under setting [1], 0.05 to 1 µM; under setting [2], 0.903 µM.
On to `Cc1nc2cnc(N3CCN(C(C)(C)CCC(F)(F)F)CC3)c(C#N)c2c(=O)n1CCOc1ccc(Cl)cc1-c1ccnc2c(C(=O)O)csc12` [compound 1400], for which, under setting [3], the IC50 is 0.0278 µM.
In the case of `CCc1nc(C)c2nc(C)n(CCOc3ccc(Cl)cc3-c3cc(C)nc4c(C(=O)O)csc34)c(=O)c2c1C#N` [compound 850], the IC50 reads like this: under setting [1], under 0.05 µM; under setting [2], 0.0177 µM.
For `Cc1nc2cc(OC(F)F)c(OC(F)F)c(C#N)c2c(=O)n1CCOc1ccc(Cl)cc1-c1ccnc2c(C(=O)O)csc12` [compound 541] the same measures were under 0.05 µM and 0.0491 µM.
As to `Cc1cc(-c2cc(Cl)ccc2OCCn2c(C)nc3cc(Cl)c(-c4cccc(C(F)F)n4)c(C#N)c3c2=O)c2scc(C(=O)O)c2n1` [compound 758], the IC50 under setting [1] was under 0.05 µM and the IC50 under setting [2] is 0.0131 µM.
For `Cc1cc(-c2cc(Cl)ccc2OCCn2c(C)nc3cc(C(F)(F)F)c(-c4cnc(C(F)F)cn4)c(C#N)c3c2=O)c2scc(C(=O)O)c2n1` [compound 1025] the same measures were under 0.05 µM and 0.03 µM.
For `Cc1nc2cc(C(F)(F)F)cc(C#N)c2c(=O)n1CCOc1ccc(Cl)cc1-c1nccc2c(C(=O)O)csc12` [compound 225] the same measures were 0.05 to 1 µM and 0.147 µM.
For `O=C(O)c1cccc(-c2cc(Cl)ccc2OCCn2ccc3cccnc3c2=O)c1` [compound 7] the same measures were over 1 µM and 12 µM.
In the case of `Cc1cc(-c2cc(Cl)ccc2OCCn2c(C)nc3cc(C(F)(F)F)c(-c4cncc(C)c4C)c(C#N)c3c2=O)c2scc(C(=O)O)c2n1` [compound 903], the IC50 runs as follows: under setting [1], under 0.05 µM; under setting [2], 0.0112 µM.
With `Cc1nc2cnc(N(C)C3CCN(C4COC4)CC3)c(C#N)c2c(=O)n1CCOc1ccc(Cl)cc1-c1ccnc2c(C(=O)O)csc12` [compound 1320], the IC50 under setting [3] is 0.0277 µM.
Turning to `Cc1cc(-c2cc(Cl)ccc2OCCn2c(C)nc3cc(C)c(CN4CCN(C)CC4)c(C#N)c3c2=O)c2scc(C(=O)O)c2n1` [compound 718], the IC50 under setting [1] was under 0.05 µM and the IC50 under setting [2] is 0.0201 µM.
Consider `Cc1nc2cnc(N3CCN(C4CC4)C4(CC4)C3)c(C#N)c2c(=O)n1CCOc1ccc(Cl)cc1-c1ccnc2c(C(=O)O)csc12` [compound 1646], for which the IC50 under setting [3] is 0.0263 µM.
With `N#Cc1cc2c(=O)n(C[C@@H]3C[C@H]3c3ccc(Cl)cc3-c3cccc(C(=O)O)c3)cnc2cn1` [compound 43], the IC50 under setting [1] is over 1 µM and the IC50 under setting [2] was over 10 µM.
Regarding `Cc1nc2cnc(N(C)C3CCN([C@H]4C[C@H](F)C4)CC3)c(C#N)c2c(=O)n1CC#Cc1ccc(Cl)cc1-c1ccnc2c(C(=O)NS(=O)(=O)c3ccncc3)csc12` [compound 1792], under setting [3], the IC50 is 0.00924 µM.
As to `COC(=O)c1csc2c(-c3cc(Cl)ccc3C#CCn3c(C)nc4cnc(N5CCN(CC(F)F)CC5)c(C#N)c4c3=O)ccnc12` [compound 1404], the IC50 under setting [3] is 0.482 µM.
Consider `Cc1cc(-c2cc(Cl)ccc2OCCn2c(C)nc3c(C(F)F)ncc(C#N)c3c2=O)c2scc(C(=O)O)c2n1` [compound 372], for which the IC50 is under 0.05 µM under setting [1] and 0.00734 µM under setting [2].
With `COCC1(N2CCN(c3ncc4nc(C)n(CC#Cc5ccc(Cl)cc5-c5ccnc6c(C(=O)O)csc56)c(=O)c4c3C#N)CC2)CC1` [compound 1465], under setting [3], the IC50 is 0.0236 µM.
